Measurements: US6953786B2, “Compositions comprising plant-derived polyphenolic compounds and inhibitors of reactive oxygen species and methods of using thereof” (The Regents of the University of California, priority 2002, dated 2005)

Columns and labels:
Mia PACA-2 cells = experiment: Mitochondrial membrane potential, DiOC6(3) retention; format: cell-based, human
Description: In order to determine the effects polyphenolic compounds have on mitochondrial membrane potential, the retention of the dye 3,3′-dihexyloxacarbocyanine (DiOC6(3)) was measured as described by Pastorino J G, et al. (1998) J Biol Chem 273:7770-7775, which is herein incorporated by reference. BSp73AS cells were cultured for 6 hours in the absence (control) or presence of 0, 12, 24, 50, and 100 μM quercetin and trans-resveratrol. The cells were loaded with 1 μM DiOC6(3) during the last 30 minutes of treatment with a polyphenolic compound (or vehicle). The cells were then collected and pelleted by centrifugation. The supernatant was removed and the pellet was washed twice with PBS by alternate centrifugation and resuspension. The pellet was then lysed by addition of 1 ml of H2O and homogenized. The concentration of DiOC6(3) was read on a Perkin-Elmer LS-5 fluorescence spectrometer at 488 nm excitation and 500 nm emission. An aliquot of the cells was used for determining the DiOC6(3) fluorescence that was retained by the cells.
Mia PACA-2 cells were cultured for 72 hours in the presence of serum and trans-resveratrol or genistein in the presence or absence of DPI or Tiron. Mitochondrial membrane potential was measured as described above.

NF-κB = NF-κB DNA binding activity (EMSA / gel shift); format: cell-based, human; conditions: for NF-κB activation (DNA binding): Mia PACA-2, 24 hours, no serum, polyphenols 100 μM, MG-132 20 μM; for NF-κB activation caused by serum: Mia PACA-2, 72 hours, with serum, DPI 15 μM, trans-resveratrol 100 μM, genistein 100 μM, LY294002 50 μM
Description: In order to determine the role of activated NF-κB in the regulation of apoptosis caused by the polyphenolic compound, the following assay was conducted. BSp73AS cells were cultured for 6 hours and Mia PACA-2 cells were cultured in the absence of serum or growth factors for 24 hours in the absence (controls) or presence of rutin, quercetin, trans-resveratrol, or genistein, each at 100 μM and 20 μM proteosome inhibitor MG-132. Nuclear proteins were isolated and analyzed for NF-κB DNA binding activity with electrophoretic mobility shift assay (EMSA).
Specifically, aliquots of nuclear extracts with equal amount of protein, about 2 to about 10 μg, were mixed in 20 μl reactions with a buffer comprising 10 mM HEPES (pH 7.6), 50 mM KCl, 0.1 mM EDTA, 1 mM DTT, 10% (vol/vol) glycerol and 3 μg poly[d (I-C)]. After aliquots were equilibrated on ice for 5 minutes, binding reactions were stared by addition of 20-60,000 counts/min (20 fM) of ^32P-labeled DNA probes and allowed to proceed for 25-30 minutes at room temperature or up to 1 hour on ice. The oligonucleotide probe
containing the κB binding motif (underlined) was annealed to the complementary oligonucleotide with a 5′-G overhang and end-labeled using Klenow DNA polymerase I. The samples were electrophoresed at room temperature in 0.5×TBE buffer (1×TBE 89 mM Tris base, 89 mM boric acid and 2 mM EDTA) on nondenaturing 4.5% polyacrylamide gel at 200 V. Gels were dried and directly analyzed in the PhosphorImager (Molecular Dynamics, Sunnyvale, Calif.). The experiment was repeated twice.
To study the effects of combinations of DPI and polyphenolic compounds on serum-induced activation of NF-κB and protection from apoptosis, the following assay was conducted. Mia PACA-2 cells were cultured for 72 hours in the presence of serum with or without 100 μM trans-resveratrol, 15 μM DPI, a combination of trans-resveratrol, 100 μM genistein, or a combination of genistein and DPI. NF-κB binding activity was measured in nuclear extracts by gel shift assay as described above.
To determine the effects of LY29400 and DPI on NF-κB activation, Mia PACA-2 cells were cultured for 72 hours in the presence of serum and 15 μM DPI with or without 50 μM LY294002. NF-κB DNA binding activity was measured in nuclear extracts by gel shift assay as described above.

cytochrome c = experiment: Mitochondrial cytochrome c release (Western blot); format: cell-based, rat; conditions: BSp73AS, 6 hours, 100 μM
Description: In order to determine the effects polyphenolic compounds have on mitochondrial cytochrome c release and apoptosis, the following assay was conducted. BSp73AS cells were cultured for 6 hours and Mia PACA-2 cells were cultured in the absence of serum or growth factors for 24 hours in the absence or presence of 100 μM of each rutin, trans-resveratrol, genistein, or quercetin. Cells were washed twice with ice-cold PBS, pH 7.2 and resuspended in extraction buffer, about 500 μl, comprising 20 mM HEPES-KOH (pH 7.0), 10 mM KCl, 1 mM […], 2 mM MgCl2, 1 mM EDTA, 1 mM DTT, 250 mM sucrose, 1 mM PMSF and protease inhibitors cocktail as provided above. The lysate was incubated for 30 minutes on ice and then homogenized using a glass dounce (80 strokes). Nuclei were removed by centrifugation at 1,000 g for 10 minutes at 4° C. Supernatant was additionally centrifuged for 1 hour at 100,000 g and the resulting supernatant (cytosolic fraction) and pellet (mitochondrial fraction) were collected separately, subjected to SDS-PAGE, and Western blotting using an antibody against cytochrome c. The experiment was repeated twice with similar results.

[1] = Mia PACA-2, 72 hours, in the presence of serum (FIG. 11)
[2] = Mia PACA-2, no serum (FIG. 10B)

NF-κB activation (DNA binding) (NF-κB)	Structure (SMILES)	mitochondrial membrane potential (Mia PACA-2 cells; [1])	mitochondrial membrane potential (Mia PACA-2 cells; [2])	NF-κB activation caused by serum (NF-κB)	cytosolic and mitochondrial cytochrome c (cytochrome c)
inhibit NF-κB activation	Oc1ccc(/C=C/c2cc(O)cc(O)c2)cc1 [trans-resveratrol]	no effects on mitochondrial membrane potential	caused dissipation of the mitochondrial membrane potential	not inhibited	caused increases in cytosolic cytochrome c and decreases in mitochondrial cytochrome c
has no effect on NF-κB	O=c1c(-c2ccc(O)cc2)coc2cc(O)cc(O)c12 [genistein]	no effects on mitochondrial membrane potential	caused dissipation of the mitochondrial membrane potential	not inhibited	caused increases in cytosolic cytochrome c and decreases in mitochondrial cytochrome c

Structure (SMILES)	NF-κB activation (DNA binding) (NF-κB)	mitochondrial membrane potential (Mia PACA-2 cells; [1])	mitochondrial membrane potential (Mia PACA-2 cells; [2])	NF-κB activation caused by serum (NF-κB)	cytosolic and mitochondrial cytochrome c (cytochrome c)
O=c1c(O)c(-c2ccc(O)c(O)c2)oc2cc(O)cc(O)c12 [quercetin]	inhibit NF-κB activation		caused dissipation of the mitochondrial membrane potential		caused increases in cytosolic cytochrome c and decreases in mitochondrial cytochrome c
